Source: patent publication US20070003640A1, “Process for controlling the isomerization of (-)-epicatechin and (+)-catechin in edible products” (priority 2005, published 2007)

Assay: Isomerization of (+)-catechin to (+)-epicatechin
Type: physicochemical
Conditions: equilibrium mixture from isomerization of (+)-catechin
Source text: While the above examples were specifically directed to the isomerization of (−)-epicatechin to (−)-catechin, it will be understood that the same processes can and will result in the isomerization of (+)-catechin to (+)-epicatechin. It will further be understood that the kinetics for the isomerization of (+)-catechin to (+)-epicatechin are similar to those for the isomerization of (−)-epicatechin to (−)-catechin, viz., the equilibrium point for a given set of temperature and pH parameters is essentially the same for either isomerization, and the equilibrium mixture resulting from the isomerization of (+)-catechin is about 70% (+)-catechin and about 30% (+)-epicatechin, with a molar ratio of (+)-epicatechin to (+)-catechin of about 1:2. Indeed, we have observed that the isomerization of (+)-catechin to (+)-epicatechin favors the same equilibrium point as the isomerization of (−)-epicatechin to (−)-catechin, that is, the molar ration of 1:2 (+)-epicatechin:(+)-catechin.

Oc1cc(O)c2c(c1)O[C@H](c1ccc(O)c(O)c1)[C@@H](O)C2 [(+)-catechin]
(+)-catechin in equilibrium mixture: about 70% | (+)-epicatechin in equilibrium mixture: about 30%
